Experimental data published in US7534894B2, “Biphenyloxy-acids” (Wyeth, priority 2003, dated 2009).

How the values were obtained:
[1] = target: T1, recombinant human plasminogen activator inhibitor-1 (PAI-1) (Homo sapiens, UniProt P05121); test: Kinetic IC50: modification of the Primary Screen for the PAI-1 Inhibition; assay type: biochemical
T1 construct: purchased Molecular Innovations, Royal Oak, Mich
Procedure: (§1) Test compounds are dissolved in DMSO at a final concentration of 10 mM, then diluted 101× in physiologic buffer. The inhibitory assay is initiated by the addition of the test compound (1-100 μM final concentration, maximum DMSO concentration of 0.2%) in a pH 6.6 buffer containing 140 nM recombinant human plasminogen activator inhibitor-1 (PAI-1; Molecular Innovations, Royal Oak, Mich.). Following a 1 hour incubation at room temperature, 70 nM of recombinant human tissue plasminogen activator (tPA) is added, and the combination of the test compound, PAI-1 and tPA is incubated for an additional 30 minutes. Following the second incubation, Spectrozyme-tPA (American Diagnostica, Greenwich, Conn.), a chromogenic substrate for tPA, is added and absorbance read at 405 nm at 0 and 60 minutes. Relative PAI-1 inhibition is equal to the residual tPA activity in the presence of the test compound and PAI-1. Control treatments include the complete inhibition of tPA by PAI-1 at the molar ratio employed (2:1), and the absence of any effect of the test compound on tPA alone.

[2] = target: T1, recombinant human plasminogen activator inhibitor-1 (PAI-1); test: Primary Screen for the PAI-1 Inhibition (residual tPA activity, chromogenic substrate Spectrozyme-tPA); assay type: biochemical; conditions: 140 nM PAI-1, 70 nM tPA, pH 6.6; for inhibition at 25 µM: 25 μM test compound; for inhibition at 100 µM: 100 μM test compound
Procedure: as §1

[3] = target: human PAI-1 (Homo sapiens, UniProt P05121); test: Antibody Assay for Determining IC50 of Inhibition of PAI-1 (active PAI-1 bound to tPA-coated plate, 33B8 antibody); assay type: binding; conditions: test compound incubated with human PAI-1 50 ng/ml, pH 7.5
human PAI-1, sequence (P05121 24-402): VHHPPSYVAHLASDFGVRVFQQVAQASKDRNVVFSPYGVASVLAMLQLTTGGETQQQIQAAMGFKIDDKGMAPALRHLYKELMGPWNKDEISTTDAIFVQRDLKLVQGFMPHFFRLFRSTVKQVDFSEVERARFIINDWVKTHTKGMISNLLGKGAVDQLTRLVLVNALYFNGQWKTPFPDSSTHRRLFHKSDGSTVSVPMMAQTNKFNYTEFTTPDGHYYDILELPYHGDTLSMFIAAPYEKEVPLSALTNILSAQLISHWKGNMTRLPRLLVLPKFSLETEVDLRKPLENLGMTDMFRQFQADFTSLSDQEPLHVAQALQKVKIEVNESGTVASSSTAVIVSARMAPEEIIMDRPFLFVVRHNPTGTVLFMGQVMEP
Procedure: This assay is based upon the non-SDS dissociable interaction between tPA and active PAI-1. Assay plates are initially coated with human tPA (10 μg/ml). Test compounds of the present invention are dissolved in DMSO at 10 mM, then diluted with physiologic buffer (pH 7.5) to a final concentration of 1-50 μM. Test compounds are incubated with human PAI-1 (50 ng/ml) for 15 minutes at room temperature. The tPA-coated plate is washed with a solution of 0.05% Tween 20 and 0. 1% BSA, then the plate is blocked with a solution of 3% BSA. An aliquot of the substituted biphenyloxy acid/PAI-1 solution is then added to the tPA-coated plate, incubated at room temperature for 1 hour, and washed. Active PAI-1 bound to the plate is assessed by adding an aliquot of a 1:1000 dilution of the 33B8 monoclonal antibody against human PAI-1, and incubating the plate at room temperature for 1 hour (Molecular Innovations, Royal Oak, Mich.). The plate is again washed, and a solution of goat anti-mouse IgG-alkaline phosphatase conjugate is added at a 1:50,000 dilution in goat serum. The plate is incubated 30 minutes at room temperature, washed, and a solution of alkaline phosphatase substrate is added. The plate is incubated 45 minutes at room temperature, and color development is determined at OD405nm. The quantitation of active PAI-1 bound to tPA at varying concentrations of the test compound is used-to determine the IC50. Results are analyzed using a logarithmic best-fit equation. The assay sensitivity is 5 ng/ml of human PAI-1 as determined from a standard curve ranging from 0-100 ng/ml.

T1 sequence (P05121 24-402): as above

Row | Structure (SMILES) | IC50 [1] | inhibition at 25 µM [2] | inhibition at 100 µM [2] | melting point | IC50 [3]
1 | O=C(O)COc1ccc(-c2ccc(NC(=O)c3cc(-c4ccc(-c5ccccc5)cc4)oc3C(F)(F)F)cc2)cc1 [Compound 36, [(4′-{[5-(1,1′-biphenyl-4-yl)-2-(trifluoromethyl)-3-furoyl]amino}-1,1′-biphenyl-4-yl)oxy]acetic acid] | 18.3 µM | 29% | 75% | – | –
2 | O=C(Nc1ccc(-c2cccc(OC(Cc3ccccc3)C(=O)O)c2)cc1)c1cc(-c2ccc(C(F)(F)F)cc2)oc1C(F)(F)F (stereo not drawn) [Compound 43, 3-phenyl-2-{[4′-({2-(trifluoromethyl)-5-[4-(trifluoromethyl)phenyl]-3-furoyl}amino)-1,1′-biphenyl-3-yl]oxy}propanoic acid] | 12 µM | 26% | 88% | – | –
3 | O=C(Nc1ccc(-c2ccc(OC(Cc3ccccc3)C(=O)O)cc2)cc1)c1ccc(-c2ccc(Cl)cc2)s1 (stereo not drawn) [Compound 46, 2-{[4′-({[5-(4-chlorophenyl)thien-2-yl]carbonyl}amino)-1,1′-biphenyl-4-yl]oxy}-3-phenylpropanoic acid] | 5.4 µM | 36% | 84% | – | –
4 | O=C(Nc1ccc(-c2cccc(OC(Cc3ccccc3)C(=O)O)c2)cc1)c1ccc(Oc2ccccc2)cc1 (stereo not drawn) [Compound 37, 2-({4′-[(4-phenoxybenzoyl)amino]-1,1′-biphenyl-3-yl}oxy)-3-phenylpropanoic acid] | 18.1 µM | 13% | 65% | – | –
5 | CCCCc1oc2ccccc2c1C(=O)NCc1ccc(-c2ccc(OCC(=O)O)c(Br)c2)cc1 [Compound 4, {[3-bromo-4′-({[(2-butyl-1-benzofuran-3-yl)carbonyl]amino}methyl)[1,1′-biphenyl]-4-yl]oxy}acetic acid] | – | 44% | 82% | 175 to 190 °C | –
6 | CCCCc1oc2ccccc2c1C(=O)Nc1ccc(-c2ccc(OCC(=O)O)cc2)cc1 [Compound 13, [(4′-{[(2-butyl-1-benzofuran-3-yl)carbonyl]amino}[1,1′-biphenyl]-4-yl)oxy]acetic acid] | – | 25% | 85% | 225 to 227 °C | –
7 | O=C(Nc1ccc(-c2ccc(OC(Cc3ccccc3)C(=O)O)cc2)cc1)c1ccc(Oc2ccccc2)cc1 (stereo not drawn) [Compound 45, 2-({4′-[(4-phenoxybenzoyl)amino]-1,1′-biphenyl-4-yl}oxy)-3-phenylpropanoic acid] | 11.5 µM | 34% | 61% | – | –
8 | CCCCc1oc2ccccc2c1C(=O)Nc1ccc(-c2ccc(OCc3nnn[nH]3)cc2)cc1 [Compound 14, 2-Butyl-N-[4′-(1H-tetraazol-5-ylmethoxy)[1,1′-biphenyl]-4-yl]-1-benzofuran-3-carboxamide] | – | 29% | 62% | 210 to 212 °C | –
9 | CN(Cc1ccc(-c2ccc(OCc3nnn[nH]3)c(Br)c2)cc1)C(=O)c1cn(Cc2ccccc2)c2ccccc12 [Compound 10, 1-Benzyl-N-{[3′-bromo-4′-(1H-tetraazol-5-ylmethoxy)-1,1′-biphenyl-4-yl]methyl}-N-methyl-1H-indole-3-carboxamide] | – | 45% | 76% | – | 30 µM
10 | O=C(O)C(Cc1ccccc1)Oc1cccc(-c2ccc(NC(=O)C3(c4ccc(Cl)cc4)CC3)cc2)c1 (stereo not drawn) [Compound 29, 2-{[4′-({[1-(4-chlorophenyl)cyclopropyl]carbonyl}amino)-1,1′-biphenyl-3-yl]oxy}-3-phenylpropanoic acid] | 31.2 µM | 31% | 83% | – | –
11 | CCCCc1oc2ccccc2c1C(=O)N(C)Cc1ccc(-c2ccc(OCc3nnn[nH]3)c(Br)c2)cc1 [Compound 6, N-{[3′-bromo-4′-(1H-tetraazol-5-ylmethoxy)-1,1′-biphenyl-4-yl]methyl}-2-butyl-N-methyl-1-benzofuran-3-carboxamide] | – | 42% | 94% | – | 10.8 µM
12 | CCCCc1oc2ccccc2c1C(=O)Nc1ccc(-c2ccc(OC(Cc3ccccc3)C(=O)O)cc2)cc1 (stereo not drawn) [Compound 49, 2-[(4′-{[(2-butyl-1-benzofuran-3-yl)carbonyl]amino}-1,1′-biphenyl-4-yl)oxy]-3-phenylpropanoic acid] | 8.71 µM | 25% | 90% | – | –
13 | O=C(O)C(Cc1ccccc1)Oc1ccc(-c2ccc(NC(=O)C3(c4ccc(Cl)cc4)CC3)cc2)cc1 (stereo not drawn) [Compound 33, 2-{[4′-({[1-(4-chlorophenyl)cyclopropyl]carbonyl}amino)-1,1′-biphenyl-4-yl]oxy}-3-phenylpropanoic acid] | 13.9 µM | 22% | 79% | – | –
14 | CCCc1c(C(=O)Nc2ccc(-c3cccc(OC(Cc4ccccc4)C(=O)O)c3)cc2)cnn1-c1ccc(Cl)cc1 (stereo not drawn) [Compound 27, 2-{[4′-({[1-(4-chlorophenyl)-5-propyl-1H-pyrazol-4-yl]carbonyl}amino)-1,1′-biphenyl-3-yl]oxy}-3-phenylpropanoic acid] | 7.8 µM | 20% | 63% | – | –
15 | CCCc1c(C(=O)NCc2ccc(-c3ccc(OCC(=O)O)cc3)cc2)cnn1-c1ccccc1 [Compound 2, ({4′-[({[1-phenyl-5-propyl-1H-pyrazol-4-yl]carbonyl}amino)methyl][1,1′-biphenyl]-4-yl}oxy)acetic acid] | – | 2% | 66% | 190 to 192 °C | –
16 | O=C(Nc1ccc(-c2cccc(OC(Cc3ccccc3)C(=O)O)c2)cc1)c1cc(-c2ccccc2Cl)oc1C(F)(F)F (stereo not drawn) [Compound 40, 2-[(4′-{[5-(2-chlorophenyl)-2-(trifluoromethyl)-3-furoyl]amino}-1,1′-biphenyl-3-yl)oxy]-3-phenylpropanoic acid] | 10.2 µM | 31% | 90% | – | –
17 | O=C(Nc1ccc(-c2ccc(OC(Cc3ccccc3)C(=O)O)cc2)cc1)c1cc(-c2ccccc2Cl)oc1C(F)(F)F (stereo not drawn) [Compound 48, 2-[(4′-{[5-(2-chlorophenyl)-2-(trifluoromethyl)-3-furoyl]amino}-1,1′-biphenyl-4-yl)oxy]-3-phenylpropanoic acid] | 23.2 µM | 7% | 78% | – | –
18 | O=C(O)C(Cc1ccccc1)Oc1ccc(-c2ccc(NC(=O)C3(c4ccccc4)CCCC3)cc2)cc1 (stereo not drawn) [Compound 31, 3-phenyl-2-[(4′-{[(1-phenylcyclopentyl)carbonyl]amino}-1,1′-biphenyl-4-yl)oxy]Propanoic acid] | 31.1 µM | 24% | 51% | – | –
19 | O=C(Nc1ccc(-c2cccc(OC(Cc3ccccc3)C(=O)O)c2)cc1)c1cc2cc(OCc3ccccc3)ccc2[nH]1 (stereo not drawn) [Compound 28, 2-{[4′-({[5-(benzyloxy)-1H-indol-2-yl]carbonyl}amino)-1,1′-biphenyl-3-yl]oxy}-3-phenylpropanoic acid] | 7.41 µM | 27% | 70% | – | –
20 | CCCCc1oc2ccccc2c1C(=O)Nc1ccc(-c2cccc(OC(Cc3ccccc3)C(=O)O)c2)cc1 (stereo not drawn) [Compound 41, 2-[(4′-{[(2-butyl-1-benzofuran-3-yl)carbonyl]amino}-1,1′-biphenyl-3-yl)oxy]-3-phenylpropanoic acid] | 9.1 µM | 30% | 95% | – | –
21 | O=C(O)C(Cc1ccccc1)Oc1cccc(-c2ccc(NC(=O)C3(c4ccc(Cl)cc4)CCCC3)cc2)c1 (stereo not drawn) [Compound 26, 2-{[4′-({[1-(4-chlorophenyl)cyclopentyl]carbonyl}amino)-1,1′-biphenyl-3-yl]oxy}-3-phenylpropanoic acid] | 16.4 µM | 58% | 69% | – | –
22 | O=C(Nc1ccc(-c2cccc(OC(Cc3ccccc3)C(=O)O)c2)cc1)c1cccc2c1-c1ccccc1C2 (stereo not drawn) [Compound 24, 2-({4′-[(9H-fluoren-4-ylcarbonyl)amino]-1,1′-biphenyl-3-yl}oxy)-3-phenylpropanoic acid] | 12.1 µM | 36% | 51% | – | –
